Literature values, collected in US20230413813A1, “ANTIMICROBIAL COMPOSITION COMPRISING A POLYIMIDE” (The Procter & Gamble Company, priority 2022, published 2023).

CC(=O)O.CC(=O)O.NC(=N\CCCCCC/N=C(N)/N=C(\N)Nc1ccc(Cl)cc1)/N=C(\N)Nc1ccc(Cl)cc1 [Chlorhexidine diaceate, Chlorhexidine diacetate]
solubility in water: ~1%
